row,Structure (SMILES),melting point
1,COc1nc(Cl)cnc1N,102 to 103 °C
2,CCCn1nc2c(N)nc3ncccc3c2c1CC,303 to 305 °C
3,COC(=O)/C=C/c1ccc(CC(C)NCC(O)c2cccc(Br)c2)cc1 (stereo unspecified),105 to 111 °C
4,O=C1NCN(c2ccccc2)C12CCN(CCCn1c(=O)[nH]c3ccccc31)CC2,228 °C
5,COc1cc(CC(=O)NCCCc2ccc(C)c(C)c2)ccc1OCCN1CCNCC1,92 to 94 °C
6,NC(=O)CCc1cccc2c1C[C@@H](CCCCc1ccccc1)O2,92 to 93 °C
7,COc1cc(C(=O)N2CCC(CCN3CCC(C(=O)c4nc5ccccc5[nH]4)CC3)(c3ccc(Cl)c(Cl)c3)C2)cc(OC)c1OC (stereo unspecified),130 to 140 °C
8,COc1cnc(CSc2nc3cc(OC(F)(F)F)ccc3[nH]2)cc1OC,92 to 93 °C
9,O=C1NCCCC12c1ccccc1-c1ccccc12,> 250 °C
10,CCC(O)(CO)c1ccc(OCc2ccc3ccccc3c2)c(OC)c1 (stereo unspecified),120 °C
11,CCCn1nc2c(N)nc3ccccc3c2c1CC(C)C,199 to 200 °C
12,NS(=O)(=O)c1cccc(-c2nc(-c3cnn4c(C(F)(F)F)cc(-c5ccc(C(F)(F)F)cc5)nc34)no2)c1,285 °C
13,O=C(NO)c1ccc(CNC(=O)c2[nH]c(-c3cccs3)cc2-c2ccc(F)cc2)cn1,189 to 191 °C
14,NC(=S)NN=C(CCC(=O)N1CCCCC1)c1ccccc1,181 to 183 °C
15,COc1cc2nc3ccc(F)cc3sc-2cc1=O,252 °C
16,CN(C)C1CC=C(c2ccccc2Cc2ccccc2)CC1 (stereo unspecified),44 to 45 °C
17,COC(=O)Nc1ccc(Br)cc1I,129 to 130 °C
18,CN1C(=O)C(C)(C)c2ccc(C(=O)O)cc21,253 to 255 °C
19,O=C(O)C1Cc2c(ncn2CCc2ccccc2)CN1C(=O)Cc1ccccc1 (stereo unspecified),215 to 220 °C
20,CCOC(=O)C(C#N)=C1CCN(c2ccc(N3C[C@H](CNC(C)=O)OC3=O)cc2F)CC1,165 to 169 °C
21,O=C(NCCOc1ccc(CC(Oc2ccccc2)C(=O)O)cc1Br)c1ccc(-c2ccccn2)cc1 (stereo unspecified),83 to 84 °C
22,CC(C)OC(=O)N1Cc2c(-c3ccc(F)cc3)ncn2-c2ccccc21,160 °C
23,CC(C)C(=O)N1CCC(C(CS(=O)(=O)c2ccc(Oc3ccc(OC(F)(F)F)cc3)cc2)N(O)C=O)CC1 (stereo unspecified),139 to 140 °C
24,CCN(CC)C(=O)Nc1cccc(Cl)c1,81 to 82 °C

row,Structure (SMILES),melting point
1,CN1C(=O)C(N)=C(C(N)=S)C1=O,282 °C
2,Cc1cc(O)c(S(=O)(=O)Cc2ccc(Cl)c(Cl)c2)c(=O)o1,144 to 145 °C
3,CCCNC(=N)Nc1nc2ccc(OC(F)(F)F)cc2s1,110 to 111 °C
4,O=c1nc(-c2ccccc2)c2ccccc2n1CC(F)(F)F,182 °C
5,CCOC(=O)Cc1c[nH]c2cc(C(F)(F)F)nn2c1=O,290 to 293 °C
6,CC1SC=C2c3ccccc3C=CN2C1=O (stereo unspecified),67 to 68 °C
7,N#C[C@@H]1C[C@@H]2C[C@@H]2N1C(=O)[C@@H](NC(=O)OCc1ccccc1)C12CC3CC(CC(O)(C3)C1)C2,105 to 106 °C
8,O=[N+]([O-])c1ccc(F)c(-c2ccccn2)c1F,84 to 86 °C
9,Cc1nnc2ccc(-c3cccc(N)c3)nn12,193 °C
10,COC(=O)c1c(C(F)F)nc(C(F)(F)F)c(C2CC(C)N(O)C2)c1CC1CC1 (stereo unspecified),142 to 144 °C
11,COc1ccc(C(=O)N[C@H]2CCN(C)C[C@H]2c2ccccc2)cc1OC (relative stereo),153 to 155 °C
12,Cc1ccc(C(=O)c2ccc(O)cc2)cc1O,174 to 175 °C
13,Cc1cn(-c2cc(NC(=O)c3ccc(Cl)c(C#Cc4ccc(NC5CC5)nn4)c3)cc(C(F)(F)F)c2)cn1,213 to 215 °C
14,COC(=O)Cc1cccc(NCCCBr)c1,129 to 130 °C
15,Cc1c(NC(=O)c2ccc(OCc3ccccc3)cc2F)ccc2cc(CN3CCCCC3)cnc12,180 to 181 °C
16,O=C(Nc1ccccc1C(F)(F)F)c1cc(-c2ccc(F)cc2F)ccc1O,180 to 181 °C
17,Cc1ccc(-c2ccc(C(=O)Nc3ccc4cc(CN5CCCC5)cnc4c3)cc2)cc1,206 to 208 °C
18,COC(=O)CCCc1ccc(CN2CCN(c3ccncc3)CC2)cc1,126 to 127 °C
19,CCOC(=O)C1=C(N)NC2=C(C(=O)CCC2)C1c1ccccc1-c1ccccc1 (stereo unspecified),248 °C
20,O=C/C=C/c1c(-c2ccc(F)cc2)n(CCc2ccccc2)c(=O)c2ccccc12,133 to 134 °C
21,CS(=O)(=O)c1cc(-c2ccccc2)ncn1,109 to 111 °C
22,COc1ccc(C(Cc2ccc(C(N)=O)cc2)c2ccccc2)cc1OC1CCCC1 (stereo unspecified),73 to 75 °C
23,COc1ccc(-c2cc(N(Cc3ccc(OCc4ccccc4)cc3)n3cnnc3)ccc2C#N)cc1,219 to 221 °C
24,CCCC1(Cl)Cc2cc(OCC(=O)O)c(Cl)c(Cl)c2C1=O (stereo unspecified),185 to 187 °C

row,Structure (SMILES),melting point
1,CC1NC(=O)NN=C1c1ccc(N)c(Br)c1 (stereo unspecified),222 to 224 °C
2,CCOc1nc2cc(C)nn2c2ccncc12,156 °C
3,NN1C(=O)C(C(=O)C(Cc2ccc3ccccc3c2)NC(=O)OCc2ccccc2)C1Oc1ccccc1 (stereo unspecified),205 to 206 °C
4,C=C(C)CSc1ccccc1S(=O)(=O)NC(C)(C)C,104 to 107 °C
5,COc1cc(CO)c([N+](=O)[O-])cc1OCCCCCCOC(C)=O,> 220 °C
6,Cc1oc(-c2ccccc2)nc1COc1ccc(Cn2cc(CCC(=O)O)c(-c3ccccc3)n2)cc1,179 to 180 °C
7,O=Cc1cc(Br)cc(Cc2cccnc2)c1,97 to 98 °C
8,CCCCOc1ccc(-c2ccc3c(c2)C=C(C(=O)OC)CCS3(=O)=O)cc1,123 to 125 °C
9,Nc1nc(NCCSSCCNc2n[nH]c(N)n2)n[nH]1,231 to 233 °C
10,Nc1ncnc2c1c(-c1ccc(Oc3ccccc3)cc1)nn2C1CCC2(CC1)OCCO2,200 to 202 °C
11,Cc1ccc(S(=O)(=O)N(CC(=O)N(C)C)c2ccc(Cl)cc2C(=O)c2ccccc2Cl)cc1,154 to 157 °C
12,COc1ccc(NC(=O)c2ccc3c(c2)C(C)(C)C(=O)N3)cc1,169 to 171 °C
13,COc1cc(F)ccc1CCN1c2nc(-c3ccncn3)cc(=O)n2CCC1C (stereo unspecified),148 to 150 °C
14,CC(C)Cc1ccc(C(C)C(=O)Oc2ccc([N+](=O)[O-])cc2)cc1 (stereo unspecified),156 to 162 °C
15,O=C(O)C(=O)c1cn(Cc2ccccc2)c2ccc(-c3ccc(OC(F)(F)F)cc3)cc12,169 to 171 °C
16,COc1ccc(C#N)nc1C,114 to 116 °C
17,CCCCCCCCCCOC(=O)N[C@H]1CCCNC(=O)C1,40 to 41 °C
18,Cc1ccc(N)c(C(O)(C(F)(F)F)C(F)(F)F)c1,110 °C
19,CS(=O)(=O)c1ccc2c(c1)C(=O)CC1(CCN(C(=O)c3ccccc3)CC1)O2,155 to 157 °C
20,Cc1c(F)c(NCc2ccccc2)cc2oc(=O)[nH]c12,204 to 206 °C
21,COC(=O)CC(CSc1nc2ccccc2s1)C(=O)OC (stereo unspecified),46 to 47 °C
22,COC(=O)C[C@H](O)C[C@H](O)CCc1c(-c2ccc(F)cc2)c(-c2ccccc2)c(C(=O)Nc2cccc(S(N)(=O)=O)c2)n1C(C)C,80 to 81 °C
23,C=Cc1ccc(COc2ccc(COC(=O)C(=O)OCC)cc2)cc1,93 °C

# Source: a melting point compilation (Tetko et al.; mined from patent text by program, amines drawn as free bases though some values may be those of a salt)
